Test results: patent US20200022964A1, “COMPOSITIONS AND METHODS FOR TREATMENT OF INFLAMMATORY AUTOIMMUNE DISEASES” (New York University, priority 2018, published 2020)

Tests used:
TNF-α = test: ELISA of TNF-α induced release of IL-1β and IL-6 in BMDMs; assay type: cell-based, mice; details: TNF-α 10 ng/mL; for TNF-α induced releases of IL-1β and IL-6: FFD 1, 10 μM, TFD 0.1, 1 μM, 48 hours
Procedure: Primary bone marrow derived macrophages (BMDMs) extraction. BMDMs were isolated from C57BL/6 and TNF-tg mice. After mice were sacrificed by cervical dislocation, the tibia and femur were isolated and both ends of the bones were cut to open the medullary cavity. Bone marrow cells were collected by centrifuge at 13000 g for 90 seconds and seeded in 6-well plates. Prior to their use in experiments, M-CSF (10 ng/ml, 576406, Biolegend) was added for 6 days to the BMDM culture medium.

cPLA2 = biological target: T1, cPLA2 (Homo sapiens, UniProt P47712); test: cPLA2 activity assay in cPLA2-transfected RAW264.7 cells; assay type: cell-based; details: TNF-α 10 ng/ml; TFD 0.1 or 1 μM, FFD 1 or 10 μM overnight
T1 construct: expressed in transfected cells; host or cells: RAW264.7
T1 sequence (P47712 whole entry): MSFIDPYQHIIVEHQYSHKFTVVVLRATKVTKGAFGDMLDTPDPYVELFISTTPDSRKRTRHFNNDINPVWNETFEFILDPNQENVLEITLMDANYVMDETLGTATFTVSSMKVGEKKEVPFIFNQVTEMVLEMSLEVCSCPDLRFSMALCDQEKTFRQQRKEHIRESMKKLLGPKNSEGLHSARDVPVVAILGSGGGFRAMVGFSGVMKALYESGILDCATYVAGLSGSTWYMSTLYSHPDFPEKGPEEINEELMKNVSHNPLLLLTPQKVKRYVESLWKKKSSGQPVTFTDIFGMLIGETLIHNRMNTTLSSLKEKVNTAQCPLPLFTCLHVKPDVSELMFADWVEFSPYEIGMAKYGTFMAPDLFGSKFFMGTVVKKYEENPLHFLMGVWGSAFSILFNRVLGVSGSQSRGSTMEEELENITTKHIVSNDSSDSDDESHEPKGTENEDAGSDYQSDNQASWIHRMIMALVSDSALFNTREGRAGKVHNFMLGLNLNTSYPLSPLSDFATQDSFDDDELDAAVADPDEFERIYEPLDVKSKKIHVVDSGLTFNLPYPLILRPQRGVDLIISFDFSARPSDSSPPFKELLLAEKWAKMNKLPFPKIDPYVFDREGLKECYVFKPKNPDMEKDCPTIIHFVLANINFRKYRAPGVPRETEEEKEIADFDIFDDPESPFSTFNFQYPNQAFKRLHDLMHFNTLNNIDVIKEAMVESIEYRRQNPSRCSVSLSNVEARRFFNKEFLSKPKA
Procedure: cPLA2 activity assay. RAW264.7 cells were transfected with an expression plasmid encoding cPLA2. 24 hours later, the transfected cells were treated with TNF-α (10 ng/ml) and ATK (1 μM), or TFD (0.1 μM or 1 μM), or FFD (1 μM or 10 μM) overnight. Then the cells were collected and lysed. Cell lysate was used for measurement of cPLA2 activity using a commercial ELISA kit (765021, Cayman Chemical). Briefly, protein concentration of the cell lysate was measured by bicinchoninic acid assay and equal amounts of protein from each lysate sample were incubated with cPLA2 substrate (Arachidonoyl Thio-PC) at room temperature. One hour later, DTNB/EGTA was added to stop the enzyme catalysis, and then the absorbance was read at 414 nm using a plate reader (SpectraMax i3x, 5025027A, Molecular Devices).

[1] = test system: TNF-α induced AA production; test: Arachidonic acid detection in BMDMs; assay type: cell-based, mice; details: TNF-α 10 ng/mL, 48 hours
Excerpt: Arachidonic acid detection. […] The result was detected at 450nm by automatic plate reader (SpectraMax i3x system, 5025027A, Molecular Devices). ATK was implemented as a positive control.

[2] = test system: osteoclastogenesis in BMDMs; test: Osteoclastogenesis in BMDMs (TRAP staining); assay type: cell-based, mice; details: RANKL 100 ng/mL and TNF-α 10 ng/mL; FFD 10 μM, TFD 1 μM; 4 days
Procedure: Osteoclastogenesis. […] The cells were fixed with formalin and stained for tartrate-resistant acid phosphatase (TRAP) with a TRAP solution containing 100 mM sodium acetate buffer (pH 5.0), 50 mM sodium tartrate, 0.1 mg/ml sodium naphtol AS-MX phosphate, 0.6 mg/ml Fast Violet LB, and 0.1% Triton X-100. TRAP-positive cells appeared dark red and TRAP-positive multinucleated cells containing more than three nuclei (TRAP-MNCs) were visualized using light microscopy.

CD4+ T cells = test: Spleen CD4+ T cell differentiation in vitro and splenic T cell composition in vivo; assay type: cell-based, mice
Procedure: Spleen CD4^+T cell differentiation. Inducing spleen naive CD4^+T cell differentiation into T cell subsets was performed. Briefly, after preparing the splenic naïve CD4^+T cells from wild-type 8-12 week old C57BL/6 mice, the following cytokines were added to induce naive CD4^+T cell differentiation into T cell subsets: IL-2 (20 ng/mL), IL-12 (15 ng/mL), and anti-IL4 (5 μg/mL) for Thl; IL-2 (20 ng/mL), IL-4 (10 ng/mL), and anti-IFNγ (5 μg/mL) for Th2; IL-6 (20 ng/mL), TGFβ (3 ng/mL), anti-IFNγ (5 μg/mL), and anti-IL4 (5 μg/mL) for Th17; IL-2 (20 ng/mL), TGFβ (15 ng/mL), anti-IFNγ (5 μg/mL), and anti-IL4 (5 μg/mL) for Treg. […] Before collecting cells for fluorescence staining, 1 μL Golgi stop from Fixation/Permeabilization Solution Kit with BD GolgiPlug™ (555028,BD Biosciences) was added to each well and incubated in the plate for 4 hours. Cells were stained according to the kit specifications. For each T cell subtype, the combination of fluorescence dyes was as follows: FITC-CD4 (M1004502, Sungene) and Percp-cy5.5-IFNγ (45-7311-82, eBioscience) for Th1; FITC-CD4 and PE-IL4 (554389, BD pharmingen) for Th2; FITC-CD4 and PE-IL-17A (12-7177-81, eBioscience) for Th17; FITC-CD4, PE-CD25 (102008, Biolegend) and Alex-Fluo647-FoxP3 (51-5773-80, eBioscience) for Treg. Then the samples were analyzed at NYU core facilities using a FACS Calibur cell analyzer with CellQuest software. […] Frozen splenic tissue specimens from TNFα Tg mice treated with or without TFD or FFD were stained and analyzed dual immunofluorescence. All sections were permeabilized with 0.1% NP40 in PBS, and then blocked in 5% donkey serum for 30 min at RT, followed by incubated with anti-IFNg (Th1), anti-IL-4 (Th2), anti-IL17 (Th17) and anti-foxp3 (Treg) diluted in 5% donkey serum at 4° C. overnight. On the second day, after washed 3 times in PBS, the sections were incubated with Cy2-conjugated donkey anti-rat IgG for 30 min at RT. After wash, the sections were furthered stained with FITC conjugated anti-CD4 for I hour at RT. To determine the macrophage polarization, sections were double stained with anti-CD68 and iNOS (M1) or CD206 (M2). DAPI were used to stain the nuclei. The fluorescence intensity of cells was quantified by Image J software.

M1 and M2 macrophages = test: Macrophage polarization in vitro (BMDMs) and in vivo (spleen of TNF-α Tg mice); assay type: cell-based; details: in vitro BMDMs and spleen of treated TNF-α Tg mice
Procedure: Macrophage polarization. […] INFγ (25 ng/mL) and LPS (250 ng/mL) were added to BMDMs to induce M1 polarization while IL-4(20 ng/mL) was used to induce M2 polarization, with or without adding FFD (1 or 10 μM) or TFD (0.1 or 1μM), and cells were cultured for 24 hours. mRNA were extracted by RNA Mini kit (74106, QIAGEN).
Frozen splenic tissue specimens from TNFα Tg mice treated with or without TFD or FFD were stained and analyzed dual immunofluorescence. All sections were permeabilized with 0.1% NP40 in PBS, and then blocked in 5% donkey serum for 30 min at RT, followed by incubated with anti-IFNg (Th1), anti-IL-4 (Th2), anti-IL17 (Th17) and anti-foxp3 (Treg) diluted in 5% donkey serum at 4° C. overnight. On the second day, after washed 3 times in PBS, the sections were incubated with Cy2-conjugated donkey anti-rat IgG for 30 min at RT. After wash, the sections were furthered stained with FITC conjugated anti-CD4 for I hour at RT. To determine the macrophage polarization, sections were double stained with anti-CD68 and iNOS (M1) or CD206 (M2). DAPI were used to stain the nuclei. The fluorescence intensity of cells was quantified by Image J software.

Row | Structure (SMILES) | effect of AA supplementation on inhibition of TNF-α induced release of IL-1β and IL6 (TNF-α; AA 10 μM, FFD 10 μM) | TNF-α induced releases of IL-1β and IL-6 (TNF-α) | TNF-α induced cPLA2 activity (cPLA2) | TNF-α induced AA production [1] | TNF-α-mediated osteoclastogenesis [2] | differentiation of IFNγ-positive Th1 subpopulation (CD4+ T cells) | differentiation of Th2, Th17 and regulatory T cells (CD4+ T cells) | anti-inflammatory M2 macrophages (M1 and M2 macrophages) | inflammatory M1 macrophages (M1 and M2 macrophages)
1 | CC(C)(C(=O)O)c1ccc(C(O)CCCN2CCC(C(O)(c3ccccc3)c3ccccc3)CC2)cc1 (centres unmarked) [fexofenadine] | eliminated the inhibitory influence | abolished | completely abolished | inhibited | markedly inhibited | significantly suppressed | negligible effects | markedly increased | significantly inhibited
2 | CC(C)(C)c1ccc(C(O)CCCN2CCC(C(O)(c3ccccc3)c3ccccc3)CC2)cc1 (centres unmarked) [terfenadine] | – | abolished | completely abolished | inhibited | markedly inhibited | significantly suppressed | negligible effects | markedly increased | significantly inhibited
